Results from ChEMBL document CHEMBL3045041, “Synthesis of novel aryl(4-substituted pyridin-3-yl)methyl carbamates and their herbicidal activity” (J Pestic Sci, 2012).

Assays:
Oryza sativa = assay: Phytotoxicity against Oryza sativa cv. Kinuhikari (rice) planted at 3 cm depth measured after 20 to 25 days; assay type: organism-based; details: in vivo
Echinochloa oryzicola [1] = assay: Herbicidal activity against Echinochloa oryzicola under greenhouse condition compound treated at emergence stage measured after 14 to 20 days; assay type: functional
[2] = system: Schoenoplectiella juncoides; assay: Herbicidal activity against Schoenoplectiella juncoides under greenhouse condition compound treated at 0.5 leaf stage measured after 14 to 20 days; assay type: functional
Echinochloa oryzicola [3] = assay: Herbicidal activity against Echinochloa oryzicola under greenhouse condition compound treated at 2.5 leaf stage measured after 14 to 20 days; assay type: functional

Row | SMILES | ED20 (Oryza sativa) [gAi/ha] | ED80 (Echinochloa oryzicola [1]) [gAi/ha] | ED80 [2] [gAi/ha] | ED80 (Echinochloa oryzicola [3]) [gAi/ha]
1 | CN(C)C(=O)OC(c1cnccc1C#N)c1cccc2ccccc12 (centres undefined) | > 1000 | 63 | 250 | 250
2 | COc1ccncc1C(OC(=O)N(C)C)c1cccc2ccccc12 (centres undefined) | > 2000 | >1000 | >1000 | >1000
3 | Cc1ccncc1C(OC(=O)N(C)C)c1cccc2ccccc12 (centres undefined) | 2000 | 500 | >1000 | 
4 | CN(C)C(=O)OC(c1cnccc1Cl)c1cccc2ccccc12 (centres undefined) | 1000 | 63 | 63 | >500
5 | CN(C)C(=O)OC(c1cnccc1Br)c1cccc2ccccc12 (centres undefined) | 2000 | 31 | 250 | 250
6 | O=C(OC(c1cnccc1C(F)(F)F)c1cccc2ccccc12)n1ccnc1 (centres undefined) |  | >500 | >1000 | 
7 | CCN(CC)C(=O)OC(c1cnccc1C(F)(F)F)c1cccc2ccccc12 (centres undefined) | > 2000 | 31 | 1000 | 250
8 | CNC(=O)OC(c1cnccc1C(F)(F)F)c1cccc2ccccc12 (centres undefined) | 2000 | 63 | 500 | 250
